{
  "source": "patent US20250230193A1",
  "about": "“CYCLIC COMPOUND HAVING SELECTIVE KRAS INHIBITORY EFFECT ON HRAS AND NRAS” (CHUGAI SEIYAKU KABUSHIKI KAISHA, priority 2022, published 2025)",
  "key": {"[1]": {"biological_target": "GDP-bound NRAS wild-type protein (Homo sapiens, UniProt P01111)", "sequence (P01111 whole entry)": "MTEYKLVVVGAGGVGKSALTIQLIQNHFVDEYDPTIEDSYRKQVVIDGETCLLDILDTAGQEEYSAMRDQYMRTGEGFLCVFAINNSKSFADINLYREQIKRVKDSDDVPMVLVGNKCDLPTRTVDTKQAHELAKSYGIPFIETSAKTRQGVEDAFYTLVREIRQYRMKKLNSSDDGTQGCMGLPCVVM", "experiment": "Binding to NRAS by surface plasmon resonance (SPR), Single Cycle Kinetics", "settings": "KD ratio NRAS/KRAS, SPR"}, "[2]": {"biological_target": "GDP-bound HRAS wild-type protein (Homo sapiens, UniProt P01112)", "sequence (P01112 whole entry)": "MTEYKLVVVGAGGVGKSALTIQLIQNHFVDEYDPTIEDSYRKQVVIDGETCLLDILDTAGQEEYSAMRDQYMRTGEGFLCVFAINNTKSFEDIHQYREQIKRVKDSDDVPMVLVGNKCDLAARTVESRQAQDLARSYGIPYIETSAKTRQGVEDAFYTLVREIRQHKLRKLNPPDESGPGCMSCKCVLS", "experiment": "Binding to HRAS by surface plasmon resonance (SPR), Single Cycle Kinetics", "settings": "KD ratio HRAS/KRAS, SPR"}},
  "note": "Where a SMILES comes first, the peptide text is derived from it. Bridges are numbered along the chain shown (N, C = ends). [ ]: non-standard residue; d: D form. The star is where a group is joined. hPhe(3-Cl-4-CF3) = N[C@@H](CCc1ccc(C(F)(F)F)c(Cl)c1)C(=O)O; NPrPhe(4-CF3) = CCCN[C@@H](Cc1ccc(C(F)(F)F)cc1)C(=O)O; NMeGly(cPent) = CN[C@H](C(=O)O)C1CCCC1; NMeD = CN[C@@H](CC(=O)O)C(=O)O; NMeL = CN[C@@H](CC(C)C)C(=O)O; Morpholide = C1CN(*)CCO1; NMeA = CN[C@@H](C)C(=O)O; Ac5c = NC1(C(=O)O)CCCC1; Aze = O=C(O)[C@@H]1CCN1; Sar = CNCC(=O)O",
  "data": [
    {"smiles": "CCCN1C(=O)[C@@H]2CCN2C(=O)[C@H](C)N(C)C(=O)[C@H]([C@@H](C)CC)NC(=O)[C@H](CC(C)C)NC(=O)C[C@@H](C(=O)N2CCOCC2)N(C)C(=O)[C@H](C2CCCC2)N(C)C(=O)C2(CCCC2)NC(=O)[C@@H]2CCCN2C(=O)[C@H](CCc2ccc(C(F)(F)F)c(Cl)c2)NC(=O)CN(C)C(=O)[C@@H]1Cc1ccc(C(F)(F)F)cc1", "note": "[PP0154] (LI[NMeA][Aze][NPrPhe(4-CF3)][Sar][hPhe(3-Cl-4-CF3)]P[Ac5c][NMeGly(cPent)][NMeD]-Morpholide; lactam N-11)", "values": [
      {"measurement": "NRAS/KRAS (ratio of KD for GDP-bound NRAS wild-type to KD for KRAS)", "setting": "[1]", "value": "C (A compound having a KD ratio of 0.1 or more and less than 3 is denoted as C)"},
      {"measurement": "HRAS/KRAS (ratio of KD for GDP-bound HRAS wild-type to KD for KRAS)", "setting": "[2]", "value": "B (a compound having 3 or more and less than 10 is denoted as B)"}
    ]},
    {"smiles": "CCCN1C(=O)CN(C)C(=O)CNC(=O)[C@H]([C@@H](C)CC)NC(=O)[C@H](CC(C)C)N(C)C(=O)C[C@@H](C(=O)N2CCOCC2)N(C)C(=O)[C@H](C2CCCC2)N(C)C(=O)C2(CCCC2)NC(=O)[C@@H]2CCCN2C(=O)[C@H](CCc2ccc(C(F)(F)F)c(Cl)c2)NC(=O)CN(C)C(=O)[C@@H]1Cc1ccc(C(F)(F)F)cc1", "note": "[PP0155] ([NMeL]IG[Sar][NPrPhe(4-CF3)][Sar][hPhe(3-Cl-4-CF3)]P[Ac5c][NMeGly(cPent)][NMeD]-Morpholide; lactam N-11)", "values": [
      {"measurement": "NRAS/KRAS (ratio of KD for GDP-bound NRAS wild-type to KD for KRAS)", "setting": "[1]", "value": "B (a compound having 3 or more and less than 10 is denoted as B)"},
      {"measurement": "HRAS/KRAS (ratio of KD for GDP-bound HRAS wild-type to KD for KRAS)", "setting": "[2]", "value": "C (A compound having a KD ratio of 0.1 or more and less than 3 is denoted as C)"}
    ]},
    {"smiles": "CCCN1C(=O)[C@@H]2CCN2C(=O)CN(C)C(=O)[C@H]([C@@H](C)CC)NC(=O)[C@H](CC(C)C)N(C)C(=O)C[C@@H](C(=O)N2CCOCC2)N(C)C(=O)[C@H](C2CCCC2)N(C)C(=O)C2(CCCC2)NC(=O)[C@@H]2CCCN2C(=O)[C@H](CCc2ccc(C(F)(F)F)c(Cl)c2)NC(=O)CN(C)C(=O)[C@@H]1Cc1ccc(C(F)(F)F)cc1", "note": "[PP0156] ([NMeL]I[Sar][Aze][NPrPhe(4-CF3)][Sar][hPhe(3-Cl-4-CF3)]P[Ac5c][NMeGly(cPent)][NMeD]-Morpholide; lactam N-11)", "values": [
      {"measurement": "NRAS/KRAS (ratio of KD for GDP-bound NRAS wild-type to KD for KRAS)", "setting": "[1]", "value": "C (A compound having a KD ratio of 0.1 or more and less than 3 is denoted as C)"},
      {"measurement": "HRAS/KRAS (ratio of KD for GDP-bound HRAS wild-type to KD for KRAS)", "setting": "[2]", "value": "B (a compound having 3 or more and less than 10 is denoted as B)"}
    ]},
    {"smiles": "CCCN1C(=O)CN(C)C(=O)[C@@H]2CCN2C(=O)[C@H]([C@@H](C)CC)NC(=O)[C@H](CC(C)C)N(C)C(=O)C[C@@H](C(=O)N2CCOCC2)N(C)C(=O)[C@H](C2CCCC2)N(C)C(=O)C2(CCCC2)NC(=O)[C@@H]2CCCN2C(=O)[C@H](CCc2ccc(C(F)(F)F)c(Cl)c2)NC(=O)CN(C)C(=O)[C@@H]1Cc1ccc(C(F)(F)F)cc1", "note": "[PP0158] ([NMeL]I[Aze][Sar][NPrPhe(4-CF3)][Sar][hPhe(3-Cl-4-CF3)]P[Ac5c][NMeGly(cPent)][NMeD]-Morpholide; lactam N-11)", "values": [
      {"measurement": "NRAS/KRAS (ratio of KD for GDP-bound NRAS wild-type to KD for KRAS)", "setting": "[1]", "value": "A (a compound having 10 or more and less than 20 is denoted as A)"},
      {"measurement": "HRAS/KRAS (ratio of KD for GDP-bound HRAS wild-type to KD for KRAS)", "setting": "[2]", "value": "B (a compound having 3 or more and less than 10 is denoted as B)"}
    ]},
    {"smiles": "CCCN1C(=O)CN(C)C(=O)[C@@H]2CCCN2C(=O)[C@H]([C@@H](C)CC)NC(=O)[C@H](CC(C)C)N(C)C(=O)C[C@@H](C(=O)N2CCOCC2)N(C)C(=O)[C@H](C2CCCC2)N(C)C(=O)C2(CCCC2)NC(=O)[C@@H]2CCCN2C(=O)[C@H](CCc2ccc(C(F)(F)F)c(Cl)c2)NC(=O)CN(C)C(=O)[C@@H]1Cc1ccc(C(F)(F)F)cc1", "note": "[PP0165] ([NMeL]IP[Sar][NPrPhe(4-CF3)][Sar][hPhe(3-Cl-4-CF3)]P[Ac5c][NMeGly(cPent)][NMeD]-Morpholide; lactam N-11)", "values": [
      {"measurement": "NRAS/KRAS (ratio of KD for GDP-bound NRAS wild-type to KD for KRAS)", "setting": "[1]", "value": "B (a compound having 3 or more and less than 10 is denoted as B)"},
      {"measurement": "HRAS/KRAS (ratio of KD for GDP-bound HRAS wild-type to KD for KRAS)", "setting": "[2]", "value": "B (a compound having 3 or more and less than 10 is denoted as B)"}
    ]},
    {"smiles": "CCCN1C(=O)[C@@H]2CCN2C(=O)[C@@H]2CCN2C(=O)[C@H]([C@@H](C)CC)NC(=O)[C@H](CC(C)C)N(C)C(=O)C[C@@H](C(=O)N2CCOCC2)N(C)C(=O)[C@H](C2CCCC2)N(C)C(=O)C2(CCCC2)NC(=O)[C@@H]2CCCN2C(=O)[C@H](CCc2ccc(C(F)(F)F)c(Cl)c2)NC(=O)CN(C)C(=O)[C@@H]1Cc1ccc(C(F)(F)F)cc1", "note": "[PP0168] ([NMeL]I[Aze][Aze][NPrPhe(4-CF3)][Sar][hPhe(3-Cl-4-CF3)]P[Ac5c][NMeGly(cPent)][NMeD]-Morpholide; lactam N-11)", "values": [
      {"measurement": "NRAS/KRAS (ratio of KD for GDP-bound NRAS wild-type to KD for KRAS)", "setting": "[1]", "value": "C (A compound having a KD ratio of 0.1 or more and less than 3 is denoted as C)"},
      {"measurement": "HRAS/KRAS (ratio of KD for GDP-bound HRAS wild-type to KD for KRAS)", "setting": "[2]", "value": "B (a compound having 3 or more and less than 10 is denoted as B)"}
    ]},
    {"smiles": "CCCN1C(=O)CN(C)C(=O)CN(C)C(=O)[C@H]([C@@H](C)CC)NC(=O)[C@H](CC(C)C)N(C)C(=O)C[C@@H](C(=O)N(C)C)N(C)C(=O)[C@H](C2CCCC2)N(C)C(=O)C2(CCCC2)NC(=O)[C@@H]2CCCN2C(=O)[C@H](CCc2ccc(C(F)(F)F)c(Cl)c2)NC(=O)CN(C)C(=O)[C@@H]1Cc1ccc(C(F)(F)F)cc1", "note": "[PP0169] ([NMeL]I[Sar][Sar][NPrPhe(4-CF3)][Sar][hPhe(3-Cl-4-CF3)]P[Ac5c][NMeGly(cPent)][NMeD]-NMe2; lactam N-11)", "values": [
      {"measurement": "NRAS/KRAS (ratio of KD for GDP-bound NRAS wild-type to KD for KRAS)", "setting": "[1]", "value": "B (a compound having 3 or more and less than 10 is denoted as B)"},
      {"measurement": "HRAS/KRAS (ratio of KD for GDP-bound HRAS wild-type to KD for KRAS)", "setting": "[2]", "value": "B (a compound having 3 or more and less than 10 is denoted as B)"}
    ]}
  ]
}
